Data taken from ChEMBL document CHEMBL5113392, “Novel hybrid pyrrolidinedione-thiazolidinones as potential anticancer agents: Synthesis and biological evaluation” (Eur J Med Chem, 2022).
The source made the active and inactive calls. No cut-off for these calls is given here.

Columns and labels:
HL-60 = assay: Anticancer activity against human HL-60 cells assessed as lethality incubated for 48 hrs by SRB assay; assay type: functional; conditions: read-out: LC50 (the source's name)
T47D [1] = assay: Anticancer activity against human T47D cells assessed as growth inhibition incubated for 48 hrs by SRB assay; assay type: functional
DU-145 [2] = assay: Anticancer activity against human DU-145 cells assessed as growth inhibition incubated for 48 hrs by SRB assay; assay type: functional
[3] = Anticancer activity against human HCT116-p53-null cells assessed as cell growth inhibition incubated for 72 hrs by MTT assay; assay type: functional
UO-31 = assay: Anticancer activity against human UO-31 cells assessed as inhibition of cell growth at 10 uM incubated for 48 hrs by SRB assay; assay type: functional; conditions: UO-31, 48 h, values are per cent of control
[4] = Selectivity index, ratio of GI50 for human HaCaT cells to GI50 for human HCT-116 cells; assay type: toxicity; conditions: HaCaT cells versus HCT-116 cells, read-out: RatioGI50
RXF 393 = assay: Anticancer activity against human RXF 393 cells assessed as growth inhibition incubated for 48 hrs by SRB assay; assay type: functional
MDA-MB-435 = assay: Anticancer activity against human MDA-MB-435 cells assessed as lethality incubated for 48 hrs by SRB assay; assay type: functional; conditions: read-out: LC50 (the source's name)
CAKI-1 = assay: Anticancer activity against human CAKI-1 cells assessed as total growth inhibition incubated for 48 hrs by SRB assay; assay type: functional
SK-MEL-28 = assay: Anticancer activity against human SK-MEL-28 cells assessed as lethality incubated for 48 hrs by SRB assay; assay type: functional; conditions: read-out: LC50 (the source's name)
NCI-H460 [5] = assay: Anticancer activity against human NCI-H460 cells assessed as lethality incubated for 48 hrs by SRB assay; assay type: functional; conditions: read-out: LC50 (the source's name)
TK-10 [6] = assay: Anticancer activity against human TK-10 cells assessed as total growth inhibition incubated for 48 hrs by SRB assay; assay type: functional
HCT-116 = assay: Anticancer activity against human HCT-116 cells assessed as growth inhibition incubated for 48 hrs by SRB assay; assay type: functional
786-0 = assay: Anticancer activity against human 786-0 cells assessed as growth inhibition incubated for 48 hrs by SRB assay; assay type: functional
Hs-578T = assay: Anticancer activity against human Hs-578T cells assessed as lethality incubated for 48 hrs by SRB assay; assay type: functional; conditions: read-out: LC50 (the source's name)
HOP-62 = assay: Anticancer activity against human HOP-62 cells assessed as lethality incubated for 48 hrs by SRB assay; assay type: functional; conditions: read-out: LC50 (the source's name)
TK-10 [7] = assay: Anticancer activity against human TK-10 cells assessed as growth inhibition incubated for 48 hrs by SRB assay; assay type: functional
NCI-H322M [8] = assay: Anticancer activity against human NCI-H322M cells assessed as lethality incubated for 48 hrs by SRB assay; assay type: functional; conditions: read-out: LC50 (the source's name)
MOLT-4 = assay: Anticancer activity against human MOLT-4 cells assessed as lethality incubated for 48 hrs by SRB assay; assay type: functional; conditions: read-out: LC50 (the source's name)
SW-620 = assay: Anticancer activity against human SW-620 cells assessed as growth inhibition incubated for 48 hrs by SRB assay; assay type: functional
SK-OV-3 [9] = assay: Anticancer activity against human SK-OV-3 cells assessed as cell growth inhibition incubated for 72 hrs by MTT assay; assay type: functional
OVCAR-3 = assay: Anticancer activity against human OVCAR-3 cells assessed as growth inhibition incubated for 48 hrs by SRB assay; assay type: functional
UACC-257 = assay: Anticancer activity against human UACC-257 cells assessed as total growth inhibition incubated for 48 hrs by SRB assay; assay type: functional
DU-145 [10] = assay: Anticancer activity against human DU-145 cells assessed as lethality incubated for 48 hrs by SRB assay; assay type: functional; conditions: read-out: LC50 (the source's name)
Malme-3M = assay: Anticancer activity against human Malme-3M cells assessed as total growth inhibition incubated for 48 hrs by SRB assay; assay type: functional
Salmon testes DNA = assay: Displacement of methyl green from salmon sperm DNA at 10 uM measured after 2 hrs by fluorescence plate reader method relative to control; assay type: nucleic-acid assay; conditions: Salmo salar
HCC 2998 [11] = assay: Anticancer activity against human HCC 2998 cells assessed as inhibition of cell growth at 10 uM incubated for 48 hrs by SRB assay; assay type: functional; conditions: HCC 2998, 48 h, values are per cent of control
COLO 205 = assay: Anticancer activity against human COLO 205 cells assessed as lethality incubated for 48 hrs by SRB assay; assay type: functional; conditions: read-out: LC50 (the source's name)
HT-29 = assay: Anticancer activity against human HT-29 cells assessed as growth inhibition incubated for 48 hrs by SRB assay; assay type: functional
[12] = Cytotoxicity against mitogen activated human peripheral blood lymphocytes assessed as cell growth inhibition incubated for 24 hrs by MTT assay; assay type: toxicity, cell-based, Lymphocyte
K562 [13] = assay: Anticancer activity against human K562 cells assessed as total growth inhibition incubated for 48 hrs by SRB assay; assay type: functional
EKVX = assay: Anticancer activity against human EKVX cells assessed as growth inhibition incubated for 48 hrs by SRB assay; assay type: functional
SNB-19 = assay: Anticancer activity against human SNB-19 cells assessed as growth inhibition incubated for 48 hrs by SRB assay; assay type: functional
A549 = assay: Anticancer activity against human A549 cells assessed as total growth inhibition incubated for 48 hrs by SRB assay; assay type: functional
NCI-H460 [14] = assay: Anticancer activity against human NCI-H460 cells assessed as total growth inhibition incubated for 48 hrs by SRB assay; assay type: functional
SN12C = assay: Anticancer activity against human SN12C cells assessed as growth inhibition incubated for 48 hrs by SRB assay; assay type: functional
[15] = Selectivity index, ratio of GI50 for human HaCaT cells to GI50 for human MCF7 cells; assay type: toxicity; conditions: HaCaT cells versus MCF7 cells, read-out: RatioGI50
K562 [16] = assay: Anticancer activity against human K562 cells assessed as lethality incubated for 48 hrs by SRB assay; assay type: functional; conditions: read-out: LC50 (the source's name)
CCRF-CEM = assay: Anticancer activity against human CCRF-CEM cells assessed as lethality incubated for 48 hrs by SRB assay; assay type: functional; conditions: read-out: LC50 (the source's name)
SK-OV-3 [17] = assay: Anticancer activity against human SK-OV-3 cells assessed as lethality incubated for 48 hrs by SRB assay; assay type: functional; conditions: read-out: LC50 (the source's name)
Jurkat = assay: Induction of morphological changes in human Jurkat cells assessed as change in cell shape incubated for 24 hrs by Hoechst 33258 and propidium iodide staining based fluorescence microscopy; assay type: functional
HCC 2998 [18] = assay: Anticancer activity against human HCC 2998 cells assessed as total growth inhibition incubated for 48 hrs by SRB assay; assay type: functional
NCI-H322M [19] = assay: Anticancer activity against human NCI-H322M cells assessed as total growth inhibition incubated for 48 hrs by SRB assay; assay type: functional
IGROV-1 = assay: Anticancer activity against human IGROV-1 cells assessed as lethality incubated for 48 hrs by SRB assay; assay type: functional; conditions: read-out: LC50 (the source's name)
T47D [20] = assay: Anticancer activity against human T47D cells assessed as lethality incubated for 48 hrs by SRB assay; assay type: functional; conditions: read-out: LC50 (the source's name)
MCF7 = assay: Anticancer activity against human MCF7 cells assessed as cell growth inhibition incubated for 72 hrs by MTT assay; assay type: functional
SK-MEL-2 = assay: Anticancer activity against human SK-MEL-2 cells assessed as lethality incubated for 48 hrs by SRB assay; assay type: functional; conditions: read-out: LC50 (the source's name)
SR = assay: Anticancer activity against human SR cells assessed as lethality incubated for 48 hrs by SRB assay; assay type: functional; conditions: read-out: LC50 (the source's name)
HCT-15 = assay: Anticancer activity against human HCT-15 cells assessed as growth inhibition incubated for 48 hrs by SRB assay; assay type: functional

With O=C1CC(N2C(=O)/C(=C/C(Cl)=C/c3ccc([N+](=O)[O-])cc3)SC2=S)C(=O)N1c1ccc(O)cc1 (centres undefined) the CC50 (HL-60) was > 100 µM, the GI50 (T47D [1]) was 2.45 µM and the GI50 (DU-145 [2]) was 1.72 µM. For the same compound, the GI50 [3] was 5.65 µM, the growth, % of control at 10 µM (UO-31) was -75.2% and the selectivity ratio [4] was 16.3. For the same compound, the GI50 (RXF 393) was 1.53 µM, the CC50 (MDA-MB-435) was 9.37 µM and the TGI (CAKI-1) was 2.42 µM. The CC50 (SK-MEL-28) was 9.05 µM, the CC50 (NCI-H460 [5]) was 39.5 µM and the TGI (TK-10 [6]) was 3.79 µM. The GI50 (HCT-116) was 0.751 µM, the GI50 (786-0) was 1.23 µM and the CC50 (Hs-578T) was > 100 µM. The CC50 (HOP-62) was > 100 µM, the GI50 (TK-10 [7]) was 1.92 µM and the CC50 (NCI-H322M [8]) was 24.3 µM. For the same compound, the CC50 (MOLT-4) was > 100 µM, the GI50 (SW-620) was 0.684 µM and the GI50 (SK-OV-3 [9]) was > 100 µM. For the same compound, the GI50 (OVCAR-3) was 0.604 µM, the TGI (UACC-257) was 9.12 µM and the CC50 (DU-145 [10]) was 6.62 µM. For the same compound, the TGI (Malme-3M) was 5.79 µM, the Activity (Salmon testes DNA) was 6.2% and the growth, % of control at 10 µM (HCC 2998 [11]) was -81.6%. For the same compound, the CC50 (COLO 205) was 56 µM, the GI50 (HT-29) was 0.847 µM and the GI50 at 24 h [12] was 67.1 µM. It also gave a TGI (K562 [13]) of 9.55 µM, a GI50 (EKVX) of 3.25 µM and a GI50 (SNB-19) of 1.34 µM. It also gave a TGI (A549) of 11.4 µM, a TGI (NCI-H460 [14]) of 6.75 µM and a GI50 (SN12C) of 1.6 µM. For the same compound, the selectivity ratio [15] was 18.4, the CC50 (K562 [16]) was > 100 µM and the CC50 (CCRF-CEM) was > 100 µM. The CC50 (SK-OV-3 [17]) was 32 µM, the Activity (Jurkat) was “Active” and the TGI (HCC 2998 [18]) was 2.92 µM. For the same compound, the TGI (NCI-H322M [19]) was 6.67 µM, the CC50 (IGROV-1) was 5.98 µM and the CC50 (T47D [20]) was > 100 µM. The GI50 (MCF7) was 4 µM, the CC50 (SK-MEL-2) was 54.3 µM and the CC50 (SR) was > 100 µM. The GI50 (HCT-15) was 0.472 µM.
